Here are results for 29 molecules from patent US20260297070A1, “CYCLIC [COMPOUND LEFT OUT] WRN INHIBITORS” (Nimbus Wadjet, Inc., priority 2023, published 2026).

Structures are written as SMILES. Bounds are passed on as bounds.

This test deals with T1, human Werner helicase (WRN-BV08, Uniprot Q14191, amino acids 517-1235 with L1074F point mutation) (Homo sapiens, UniProt Q14191, L1074F).
T1 construct: Uniprot Q14191, amino acids 517-1235 with L1074F point mutation; TEV-cleavable 8×His (C, cleaved yes); made in house; host or cells: Sf9 insect cells (baculovirus)
T1 sequence (Q14191 with tags, fused parts or gaps L1074F limits assumed): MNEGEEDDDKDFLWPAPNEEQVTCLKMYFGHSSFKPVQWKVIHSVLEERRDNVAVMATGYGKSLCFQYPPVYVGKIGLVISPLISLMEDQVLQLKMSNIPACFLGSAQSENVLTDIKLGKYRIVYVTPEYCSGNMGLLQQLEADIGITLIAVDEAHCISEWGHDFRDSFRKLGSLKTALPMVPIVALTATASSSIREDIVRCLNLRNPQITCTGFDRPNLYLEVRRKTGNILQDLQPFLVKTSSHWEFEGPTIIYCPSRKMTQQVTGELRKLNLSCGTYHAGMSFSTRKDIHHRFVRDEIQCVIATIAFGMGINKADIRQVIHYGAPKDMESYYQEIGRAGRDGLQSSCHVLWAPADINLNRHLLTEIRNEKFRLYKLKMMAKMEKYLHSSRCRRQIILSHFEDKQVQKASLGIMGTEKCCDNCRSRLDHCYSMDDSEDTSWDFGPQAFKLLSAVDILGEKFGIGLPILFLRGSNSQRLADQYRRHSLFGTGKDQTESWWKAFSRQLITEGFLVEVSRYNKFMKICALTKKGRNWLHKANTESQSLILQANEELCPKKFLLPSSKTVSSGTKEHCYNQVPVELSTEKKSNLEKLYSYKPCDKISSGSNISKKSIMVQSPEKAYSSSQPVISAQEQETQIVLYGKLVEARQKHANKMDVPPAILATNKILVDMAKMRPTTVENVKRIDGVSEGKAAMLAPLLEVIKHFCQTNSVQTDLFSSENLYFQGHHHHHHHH
In words: WRN (BV08) ADP-Glo Assay. The class given is biochemical. The conditions noted are these: 0.15 nM WRN, 5 μM ATP, 0.1 nM DNA duplex, 15 min preincubation, 60 min at 25° C., pH 7.5, 1% DMSO; read-out: ADP-Glo_hWRN_IC50. An outline of the steps: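 Percent inhibition was normalised to DMSO (max) and 20 μM NSC-617145 (min) controls from ADP-Glo luminescence, and IC50 values came from a four-parameter fit. The reaction ran 60 min at 25 °C with 0.15 nM WRN, 5 μM ATP and 0.1 nM duplex DNA.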
In general terms: ADP-Glo first removes unused ATP, then detects ADP through luciferase.
Regarding `CC(C(=O)N(Cc1ccncc1)C1C=CS(=O)(=O)C1)n1cc2ccccc2n1` (centres unmarked) [I-620, N-(1,1-dioxo-2,3-dihydro-1lambda6-thiophen-3-yl)-2-(2H-indazol-2-yl)-N-[(pyridin-4-yl)methyl]propanamide], the IC50 was over 50 µM.

As for `O=C(C1CC(c2ccncc2)=NO1)N(Cc1ccncc1)C1C=CS(=O)(=O)C1` (centres unmarked) [I-621, N-(1,1-dioxo-2,3-dihydro-1lambda6-thiophen-3-yl)-3-(pyridin-4-yl)-N-[(pyridin-4-yl)methyl]-4,5-dihydro-1,2-oxazole-5-carboxamide], the IC50 is over 50 µM.

For `O=C(C1CCn2cc(C(F)(F)F)nc2C1)N(Cc1ccncc1)C1C=CS(=O)(=O)C1` (centres unmarked) [I-622], the IC50 is over 50 µM.

As for `CC(C)(O)c1ccc(CN(C(=O)Cc2ccc(S(F)(F)(F)(F)F)cc2)C2C=CS(=O)(=O)C2)cc1` (centres unmarked) [I-623, N-(1,1-dioxo-2,3-dihydro-1lambda6-thiophen-3-yl)-N-{[4-(2-hydroxypropan-2-yl)phenyl]methyl}-2-[4-(pentafluoro-lambda6-sulfanyl)phenyl]acetamide], the IC50 lay within 0.5 to 5 µM.

Consider `O=C(Cc1ccc(S(F)(F)(F)(F)F)cc1)N(Cc1cc(C2CC2)no1)C1C=CS(=O)(=O)C1` (centres unmarked) [I-624, N-[(3-cyclopropyl-1,2-oxazol-5-yl)methyl]-N-(1,1-dioxo-2,3-dihydro-1lambda6-thiophen-3-yl)-2-[4-(pentafluoro-lambda6-sulfanyl)phenyl]acetamide], for which the IC50 is 0.5 to 5 µM.

Turning to `CC(F)(F)c1csc(CN(C(=O)Cc2ccc(S(F)(F)(F)(F)F)cc2)C2C=CS(=O)(=O)C2)n1` (centres unmarked) [I-625, N-{[4-(1,1-difluoroethyl)-1,3-thiazol-2-yl]methyl}-N-(1,1-dioxo-2,3-dihydro-1lambda6-thiophen-3-yl)-2-[4-(pentafluoro-lambda6-sulfanyl)phenyl]acetamide], the IC50 was under 0.5 µM.

As for `O=C(Cc1ccc(S(F)(F)(F)(F)F)cc1)N(Cc1nc(-c2nn[nH]n2)cs1)C1C=CS(=O)(=O)C1` (centres unmarked) [I-626, N-(1,1-dioxo-2,3-dihydro-1lambda6-thiophen-3-yl)-2-[4-(pentafluoro-lambda6-sulfanyl)phenyl]-N-{[4-(2H-1,2,3,4-tetrazol-5-yl)-1,3-thiazol-2-yl]methyl}acetamide], the IC50 is under 0.5 µM.

As to `O=C(Cc1cnc(C(F)(F)F)cn1)N(Cc1ccncc1)C1C=CS(=O)(=O)C1` (centres unmarked) [I-627, N-(1,1-dioxo-2,3-dihydro-1lambda6-thiophen-3-yl)-N-[(pyridin-4-yl)methyl]-2-[5-(trifluoromethyl)pyrazin-2-yl]acetamide], the IC50 was over 50 µM.

In the case of `CCc1csc(CN(C(=O)Cc2ccc(S(F)(F)(F)(F)F)cc2)C2C=CS(=O)(=O)C2)n1` (centres unmarked) [I-628, N-(1,1-dioxo-2,3-dihydro-1lambda6-thiophen-3-yl)-N-[(4-ethyl-1,3-thiazol-2-yl)methyl]-2-[4-(pentafluoro-lambda6-sulfanyl)phenyl]acetamide], the IC50 is under 0.5 µM.

For `O=C(Cc1ccc(S(F)(F)(F)(F)F)cc1)N(CCc1nc(C2CC2)cs1)C1C=CS(=O)(=O)C1` (centres unmarked) [I-629, N-[2-(4-cyclopropyl-1,3-thiazol-2-yl)ethyl]-N-(1,1-dioxo-2,3-dihydro-1lambda6-thiophen-3-yl)-2-[4-(pentafluoro-lambda6-sulfanyl)phenyl]acetamide], the IC50 lay in the range of 0.5 to 5 µM.

Turning to `O=C(Cc1ccc2c(c1)CCOC2)N(Cc1ccncc1)C1C=CS(=O)(=O)C1` (centres unmarked) [I-630, 2-(3,4-dihydro-1H-2-benzopyran-6-yl)-N-(1,1-dioxo-2,3-dihydro-1lambda6-thiophen-3-yl)-N-[(pyridin-4-yl)methyl]acetamide], the IC50 was over 50 µM.

With `COc1cc(CC(=O)N(Cc2ccncc2)C2C=CS(=O)(=O)C2)cc(OC)c1Br` (centres unmarked) [I-631, 2-(4-bromo-3,5-dimethoxyphenyl)-N-(1,1-dioxo-2,3-dihydro-1lambda6-thiophen-3-yl)-N-[(pyridin-4-yl)methyl]acetamide], the IC50 is over 50 µM.

For the molecule `O=C(Cc1ccc(S(F)(F)(F)(F)F)cc1)N(Cc1ccnc(C2(O)COC2)c1)C1C=CS(=O)(=O)C1` (centres unmarked) [I-633, N-(1,1-dioxo-2,3-dihydro-1lambda6-thiophen-3-yl)-N-{[2-(3-hydroxyoxetan-3-yl)pyridin-4-yl]methyl}-2-[4-(pentafluoro-lambda6-sulfanyl)phenyl]acetamide], the IC50 was 10 to 50 µM.

On to `COc1nc(CN(C(=O)Cc2ccc(S(F)(F)(F)(F)F)cc2)C2C=CS(=O)(=O)C2)cc(N(C)C)n1` (centres unmarked) [I-634, N-{[6-(dimethylamino)-2-methoxypyrimidin-4-yl]methyl}-N-(1,1-dioxo-2,3-dihydro-1lambda6-thiophen-3-yl)-2-[4-(pentafluoro-lambda6-sulfanyl)phenyl]acetamide], for which the IC50 fell in the range of 5 to 10 µM.

`COc1cc(CN(C(=O)Cc2ccc(S(F)(F)(F)(F)F)cc2)C2C=CS(=O)(=O)C2)nc(N(C)C)n1` (centres unmarked) [I-635, N-{[2-(dimethylamino)-6-methoxypyrimidin-4-yl]methyl}-N-(1,1-dioxo-2,3-dihydro-1lambda6-thiophen-3-yl)-2-[4-(pentafluoro-lambda6-sulfanyl)phenyl]acetamide]: the IC50 was in the range of 0.5 to 5 µM.

For the molecule `CC(C)(O)c1csc(CN(C(=O)Cc2ccc(S(F)(F)(F)(F)F)cc2)C2C=CS(=O)(=O)C2)n1` (centres unmarked) [I-637, N-(1,1-dioxo-2,3-dihydro-1lambda6-thiophen-3-yl)-N-{[4-(2-hydroxypropan-2-yl)-1,3-thiazol-2-yl]methyl}-2-[4-(pentafluoro-lambda6-sulfanyl)phenyl]acetamide], the IC50 is 10 to 50 µM.

`O=C(Cc1ccc(-c2ccc(F)cc2)cc1)N(Cc1ccccc1)C1C=C(CO)S(=O)(=O)C1` (centres unmarked) [I-640, N-benzyl-2-{4′-fluoro-[1,1′-biphenyl]-4-yl}-N-[5-(hydroxymethyl)-1,1-dioxo-2,3-dihydro-1lambda6-thiophen-3-yl]acetamide]: the IC50 is over 50 µM.

Consider `O=C(Cc1ccc2c(c1)COCC2)N(Cc1ccncc1)C1C=CS(=O)(=O)C1` (centres unmarked) [I-642, 2-(3,4-dihydro-1H-2-benzopyran-7-yl)-N-(1,1-dioxo-2,3-dihydro-1lambda6-thiophen-3-yl)-N-[(pyridin-4-yl)methyl]acetamide], for which the IC50 is over 50 µM.

As to `O=C(Cc1ccc2c(c1)CCCC2)N(Cc1ccncc1)C1C=CS(=O)(=O)C1` (centres unmarked) [I-643, N-(1,1-dioxo-2,3-dihydro-1lambda6-thiophen-3-yl)-N-[(pyridin-4-yl)methyl]-2-(5,6,7,8-tetrahydronaphthalen-2-yl)acetamide], the IC50 was in the range of 10 to 50 µM.

With `O=C(Cc1ccc(S(F)(F)(F)(F)F)cc1)N(Cc1noc(C2CC2)n1)C1C=CS(=O)(=O)C1` (centres unmarked) [I-644, N-[(5-cyclopropyl-1,2,4-oxadiazol-3-yl)methyl]-N-(1,1-dioxo-2,3-dihydro-1lambda6-thiophen-3-yl)-2-[4-(pentafluoro-lambda6-sulfanyl)phenyl]acetamide], the IC50 lay in the range of 0.5 to 5 µM.

In the case of `O=C(Cc1ccc(S(F)(F)(F)(F)F)cc1)N(Cc1nnc(C2CC2)s1)C1C=CS(=O)(=O)C1` (centres unmarked) [I-645, N-[(5-cyclopropyl-1,3,4-thiadiazol-2-yl)methyl]-N-(1,1-dioxo-2,3-dihydro-1lambda6-thiophen-3-yl)-2-[4-(pentafluoro-lambda6-sulfanyl)phenyl]acetamide], the IC50 lay in the range of 0.5 to 5 µM.

For `O=C(Cc1ccc(S(F)(F)(F)(F)F)cc1)N(Cc1ccnnc1)C1C=CS(=O)(=O)C1` (centres unmarked) [I-646, N-(1,1-dioxo-2,3-dihydro-1lambda6-thiophen-3-yl)-2-[4-(pentafluoro-lambda6-sulfanyl)phenyl]-N-[(pyridazin-4-yl)methyl]acetamide], the IC50 was 5 to 10 µM.

Regarding `O=C(C1CC(c2ccccc2)O1)N(Cc1ccncc1)C1C=CS(=O)(=O)C1` (centres unmarked) [I-647, N-(1,1-dioxo-2,3-dihydro-1lambda6-thiophen-3-yl)-4-phenyl-N-[(pyridin-4-yl)methyl]oxetane-2-carboxamide], the IC50 is over 50 µM.

With `O=C(Cc1ccc(S(F)(F)(F)(F)F)cc1)N(Cc1cnoc1)C1C=CS(=O)(=O)C1` (centres unmarked) [I-648, N-(1,1-dioxo-2,3-dihydro-1lambda6-thiophen-3-yl)-N-[(1,2-oxazol-4-yl)methyl]-2-[4-(pentafluoro-lambda6-sulfanyl)phenyl]acetamide], the IC50 lay within 5 to 10 µM.

For `COc1ccc(C(F)(F)C(=O)N(Cc2ccncc2)C2C=CS(=O)(=O)C2)cc1` (centres unmarked) [I-649, N-(1,1-dioxo-2,3-dihydro-1lambda6-thiophen-3-yl)-2,2-difluoro-2-(4-methoxyphenyl)-N-[(pyridin-4-yl)methyl]acetamide], the IC50 was over 50 µM.

With `O=C(C1Cc2ccc(Cl)cc21)N(Cc1ccncc1)C1C=CS(=O)(=O)C1` (centres unmarked) [I-650, 4-chloro-N-(1,1-dioxo-2,3-dihydro-1lambda6-thiophen-3-yl)-N-[(pyridin-4-yl)methyl]bicyclo[4.2.0]octa-1,3,5-triene-7-carboxamide], the IC50 was over 50 µM.

`O=C(C1CC(C(F)(F)F)CO1)N(Cc1ccncc1)C1C=CS(=O)(=O)C1` (centres unmarked) [I-651, N-(1,1-dioxo-2,3-dihydro-1lambda6-thiophen-3-yl)-N-[(pyridin-4-yl)methyl]-4-(trifluoromethyl)oxolane-2-carboxamide]: the IC50 was over 50 µM.

Turning to `O=C(C1CCc2cc(Cl)ccc2O1)N(Cc1ccncc1)C1C=CS(=O)(=O)C1` (centres unmarked) [I-653, 6-chloro-N-(1,1-dioxo-2,3-dihydro-1lambda6-thiophen-3-yl)-N-[(pyridin-4-yl)methyl]-3,4-dihydro-2H-1-benzopyran-2-carboxamide], the IC50 was over 50 µM.

For the molecule `O=C(C1CCC2(CCC2)CO1)N(Cc1ccncc1)C1C=CS(=O)(=O)C1` (centres unmarked) [I-654, N-(1,1-dioxo-2,3-dihydro-1lambda6-thiophen-3-yl)-N-[(pyridin-4-yl)methyl]-6-oxaspiro[3.5]nonane-7-carboxamide], the IC50 is over 50 µM.
